# Data from patent publication US20250090435A1, “PRESERVATIVES FOR COSMETIC AND PHARMACEUTICAL COMPOSITIONS” (priority 2021, published 2025).
# How the values were obtained:
# [1] = Thickening behavior study: viscosity of surfactant systems; assay type: physicochemical; details: for Viscosity (change after each sequential addition) / Change in viscosity (symbol under Viscosity) / Viscosity (LV3/12 rpm): pH 5.5; for Viscosity: 12% AM, NaCl 1, pH 5.5, additive(s) at 1% w/w each; for Change in viscosity (symbol under Viscosity) / Viscosity (LV3/12 rpm): 14% AM sodium coco sulfate/decyl glucoside system, additive(s) at 1% each
# Protocol: Four formulations are shown in the four rightmost columns of Table 14 with ingredients indicated as a percentage by weight. The formulations differ in percentages of sodium chloride, 3-(heptyloxy)propane-1,2-diol, and 3-[(n-octyl)oxy]-1,2-propanediol.
# A thickening behavior study was also performed in another basic surfactant system: Anionic/Non Ionic (APG—alkyl polyglucoside). Each column corresponds to a particular formulation with ingredients listed as a percentage by weight. The remainder was water, represented by Qs. % AM indicates % of active matter (e.g. % of dry surfactant).
# (§1) A further thickening behavior study was performed in a different basic surfactant system: anionic/amphoteric (CAPB—Cocamidopropyl betaine). Each column corresponds to a particular formulation with ingredients listed as a percentage by weight. The remainder was water, represented by Qs. % AM indicates % of active matter (e.g. % of dry surfactant).
# A further thickening behavior study was performed to compare sulfated surfactants and sulfate free surfactants. Each column corresponds to a particular formulation with ingredients listed as a percentage by weight. The remainder was water, represented by Qs. % AM indicates % of active matter (e.g. % of dry surfactant). Sodium chloride, 3-(heptyloxy)propane-1,2-diol, and 3-[(n-octyl)oxy]-1,2-propanediol were added sequentially with the change in viscosity measured after each addition and noted in Table 17 below.
# as §1, with “to determine viscosity differences with and without salt (e.g. sodium chloride).” for “in a different basic surfactant system: anionic/amphoteric (CAPB—Cocamidopropyl betaine).”
# microbial growth = experiment: BIOLUMIX assay to screen for preventing microbial growth; assay type: cell-based; details: 1% by weight in cleansing wipe, emulsion wipe, cream, shampoo, roll-on deodorant
# From the text: Efficacy of the compositions in preventing microbial growth were screened with a BIOLUMIX assay. The BIOLUMIX assay produces a color change when carbon dioxide, indicative of microbial contamination, is detected in a sample. Non-preserved formulations without 3-(heptyloxy)propane-1,2-diol were used as negative controls, and formulations were used at particular percentages of 3-(heptyloxy)propane-1,2-diol by weight. Passing criteria is meeting criteria A in Table 5.
# [2] = test system: Staphylococcus epidermidis - code souchier C′; experiment: Roll-on deodorant challenge test (ISO 11930, odor-causing bacteria); assay type: cell-based; details: addition of 1% in natural roll-on deodorant
# Protocol: The roll-on deodorant challenge tests shown below were conducted in accordance with ISO 11930 except that formulations were tested with bacteria Corynebacterium xerosis—code souchier M′ and Staphylococcus epidermidis—code souchier C′, which are two of the major odor-causing bacteria found in skin flora. The roll-on deodorant formulations used in the challenge tests are described in Tables 3 and 4 above. A non-preserved formulation without 3-(heptyloxy)propane-1,2-diol was used as a negative control, and the high concentration formulation with 1% 3-(heptyloxy)propane-1,2-diol by weight was tested.
# [3] = Skin irritancy and skin sensitization
# [4] = Solubility in aqueous systems; assay type: physicochemical; details: compared to 3-(heptyloxy)propane-1,2-diol
# [5] = Sulfate free: Na Cocoyl Glutamate 8/Decyl Glucoside 4, 12% AM, added sequentially NaCl 2, 3-(heptyloxy)propane-1,2-diol 1, 3-[(n-octyl)oxy]-1,2-propanediol 1
# [6] = Sulfate free: Na Cocoyl Glycinate 8/Decyl Glucoside 4, 12% AM, added sequentially NaCl 2, 3-(heptyloxy)propane-1,2-diol 1, 3-[(n-octyl)oxy]-1,2-propanediol 1
# [7] = Sulfate free: Na Lauroyl Sarcosinate 8/Decyl Glucoside 4, 12% AM, added sequentially NaCl 2, 3-(heptyloxy)propane-1,2-diol 1, 3-[(n-octyl)oxy]-1,2-propanediol 1
# [8] = Sulfate free: Na Lauryl Glucose Carboxylate 8/Decyl Glucoside 4, 12% AM, added sequentially NaCl 2, 3-(heptyloxy)propane-1,2-diol 1, 3-[(n-octyl)oxy]-1,2-propanediol 1
# [9] = Sulfate free: Na Lauryl Sulfoacetate 8/Decyl Glucoside 4, 12% AM, added sequentially NaCl 2, 3-(heptyloxy)propane-1,2-diol 1, 3-[(n-octyl)oxy]-1,2-propanediol 1
# [10] = Sulfated: Ammonium Lauryl Sulfate 8/Decyl Glucoside 4, 12% AM, added sequentially NaCl 1, 3-(heptyloxy)propane-1,2-diol 1, 3-[(n-octyl)oxy]-1,2-propanediol 1
# [11] = Sulfated: Na Coco Sulfate 8/Decyl Glucoside 4, 12% AM, added sequentially NaCl 1, 3-(heptyloxy)propane-1,2-diol 1, 3-[(n-octyl)oxy]-1,2-propanediol 1
# [12] = Sulfated: Na Lauryl Ether Sulfate 8/Decyl Glucoside 4, 12% AM, added sequentially NaCl 1, 3-(heptyloxy)propane-1,2-diol 1, 3-[(n-octyl)oxy]-1,2-propanediol 1
# [13] = Sulfated: Na Lauryl Sulfate 8/Decyl Glucoside 4, 12% AM, added sequentially NaCl 1, 3-(heptyloxy)propane-1,2-diol 1, 3-[(n-octyl)oxy]-1,2-propanediol 1
# [14] = Ammonium Lauryl Sulfate (ALS) 8/APG 4 system
# [15] = Ammonium Lauryl Sulfate (ALS) 10/CAPB 2 system
# [16] = Na Cocoyl Sulfate (SCS) 8/APG 4 system
# [17] = Na Lauryl Ether Sulfate (SLES) 8/APG 4 system
# [18] = Na Lauryl Ether Sulfate (SLES) 10/CAPB 2 system
"Viscosity (change after each sequential addition) [1, 5]","Viscosity (change after each sequential addition) [1, 6]","Viscosity (change after each sequential addition) [1, 7]","Viscosity (change after each sequential addition) [1, 8]","Viscosity (change after each sequential addition) [1, 9]","Viscosity (change after each sequential addition) [1, 10]","Viscosity (change after each sequential addition) [1, 11]","Viscosity (change after each sequential addition) [1, 12]","Viscosity (change after each sequential addition) [1, 13]","Viscosity [1, 14] [cps]","Viscosity [1, 15] [cps]","Viscosity [1, 16] [cps]","Viscosity [1, 17] [cps]","Viscosity [1, 18] [cps]",SMILES,Change in viscosity (symbol under Viscosity) ([1]; With 1% NaCl),Viscosity (LV3/12 rpm) ([1]; With 1% NaCl) [cps],also measured
≈,≈,≈,≈,≈,↑+,↑+,↑+,↑,260,2500,130,50,200,"CCCCCCCOCC(O)CO (stereo not drawn) [3-(heptyloxy)propane-1,2-diol]",↑+,1600,"microbial growth in products (microbial growth): successfully blocks microbial growth; speed of logarithmic reduction of bacteria [2]: increases logarithmic reduction of bacteria such as Staphylococcus faster; Change in viscosity (symbol under Viscosity) ([1]; Without Salt): ≈; Viscosity (LV3/12 rpm) ([1]; Without Salt, base without additives 70 cps): 80 cps; skin irritancy [3]: reduced/no skin irritancy; skin sensitization [3]: non-skin sensitizer"
,,,,,,,,,,,,,,[Cl-].[Na+] [Sodium Chloride],↑,280,
≈,≈,≈,≈,≈,↑++,↑++,↑++,↑++,550,3250,370,50,700,"CCCCCCCCOCC(O)CO (stereo not drawn) [3-[(n-octyl)oxy]-1,2-propanediol]",,,solubility in aqueous systems [4]: lower solubility in aqueous systems

SMILES,"Viscosity (change after each sequential addition) [1, 5]","Viscosity (change after each sequential addition) [1, 6]","Viscosity (change after each sequential addition) [1, 7]","Viscosity (change after each sequential addition) [1, 8]","Viscosity (change after each sequential addition) [1, 9]","Viscosity (change after each sequential addition) [1, 10]","Viscosity (change after each sequential addition) [1, 11]","Viscosity (change after each sequential addition) [1, 12]","Viscosity (change after each sequential addition) [1, 13]","Viscosity [1, 14] [cps]","Viscosity [1, 15] [cps]","Viscosity [1, 16] [cps]","Viscosity [1, 17] [cps]","Viscosity [1, 18] [cps]",Change in viscosity (symbol under Viscosity) ([1]; With 1% NaCl),Viscosity (LV3/12 rpm) ([1]; With 1% NaCl) [cps],also measured
[Cl-].[Na+] [NaCl],≈,↑,≈,≈,≈,↑,↑,↑,↑,,,,,,,,
